This note sets out measurements from patent publication US11987588B2, “Modulators of the beta-3 adrenergic receptor useful for the treatment or prevention of heart failure and disorders related thereto” (Arena Pharmaceuticals, Inc., priority 2017, dated 2024).

For this assay, the target named is Beta-3 Adrenergic Receptor (Homo sapiens (Human), UniProt P13945). Nature of the assay: Homogeneous Time-Resolved Fluorescence (HTRF) cAMP antagonist assay, IC50 determination. Type of assay: cell-based. The note with it: CHO-K1 cells stably expressing recombinant receptor, isoproterenol at EC90. In short, it runs like this: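 CHO-K1 cells stably expressing the recombinant receptor were preincubated with compound (10-point, 5-fold dilutions; top final typically 10 or 100 μM) in PBS with 1 mM IBMX, then stimulated with isoproterenol at its EC90 for 1 h at room temperature. cAMP was read by HTRF against an on-plate standard curve.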
Chain of Beta-3 Adrenergic Receptor (P13945 whole entry, species assumed): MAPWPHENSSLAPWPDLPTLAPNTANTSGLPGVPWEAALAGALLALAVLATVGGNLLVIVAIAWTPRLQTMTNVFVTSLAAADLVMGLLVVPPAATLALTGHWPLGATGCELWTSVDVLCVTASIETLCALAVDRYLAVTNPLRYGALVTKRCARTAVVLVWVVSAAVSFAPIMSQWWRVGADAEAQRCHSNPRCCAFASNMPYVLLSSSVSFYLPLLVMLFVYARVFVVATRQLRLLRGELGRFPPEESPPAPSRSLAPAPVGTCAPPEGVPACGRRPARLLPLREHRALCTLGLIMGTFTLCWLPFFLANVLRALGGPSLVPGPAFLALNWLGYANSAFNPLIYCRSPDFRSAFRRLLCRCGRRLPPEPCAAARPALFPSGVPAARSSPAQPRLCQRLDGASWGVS
Regarding `CCN1CCOc2ncc(S(=O)(=O)N3CCC4(CC3)CC(NC[C@H](O)COc3cccc(S(=O)(=O)NC)c3)CO4)cc21` (stereo partly drawn) [Compound 423, 3-((2S)-3-(8-(1-ethyl-2,3-dihydro-1H-pyrido[2,3-b][1,4]oxazin-7-ylsulfonyl)-1-oxa-8-azaspiro[4.5]decan-3-ylamino)-2-hydroxypropoxy)-N-methylbenzenesulfonamide], the IC50 was found to be 12.6 nM.

Turning to `C[C@H](CO)NS(=O)(=O)c1cccc(OC[C@@H](O)CN[C@@H]2COC3(CCN(S(=O)(=O)c4cccc(-c5ccc(CN)cc5)c4)CC3)C2)c1` [Compound 424, 3-((S)-3-((S)-8-(4′-(aminomethyl)biphenyl-3-ylsulfonyl)-1-oxa-8-azaspiro[4.5]decan-3-ylamino)-2-hydroxypropoxy)-N—((R)-1-hydroxypropan-2-yl)benzenesulfonamide], the IC50 came to 51.3 nM.

Turning to `CNS(=O)(=O)c1cccc(OC[C@@H](O)CNC2COC3(CCN(S(=O)(=O)c4cnc(O)nc4)CC3)C2)c1` (stereo partly drawn) [Compound 425, 3-((2S)-2-hydroxy-3-(8-(2-hydroxypyrimidin-5-ylsulfonyl)-1-oxa-8-azaspiro[4.5]decan-3-ylamino)propoxy)-N-methylbenzenesulfonamide], the half-maximal inhibitory concentration (IC50) stood at 216 nM.

For `CNS(=O)(=O)c1cccc(OC[C@@H](O)CNC2COC3(CCN(S(=O)(=O)c4ccc(NCCOC)nc4)CC3)C2)c1` (stereo partly drawn) [Compound 426, 3-((2S)-2-hydroxy-3-(8-(6-(2-methoxyethylamino)pyridin-3-ylsulfonyl)-1-oxa-8-azaspiro[4.5]decan-3-ylamino)propoxy)-N-methylbenzenesulfonamide], the IC50 was 98.6 nM.

Take `CN1CCOc2ncc(S(=O)(=O)N3CCC4(CC3)C[C@@H](NC[C@H](O)COc3cccc(S(=O)(=O)N[C@H]5CCC[C@@H]5O)c3)CO4)cc21` [Compound 427, 3-((S)-2-hydroxy-3-((R)-8-(1-methyl-2,3-dihydro-1H-pyrido[2,3-b][1,4]oxazin-7-ylsulfonyl)-1-oxa-8-azaspiro[4.5]decan-3-ylamino)propoxy)-N-((1S,2S)-2-hydroxycyclopentyl)benzenesulfonamide]: the IC50 is 184 nM.

In the case of `CNS(=O)(=O)c1cccc(OC[C@@H](O)CNC2COC3(CCN(S(=O)(=O)c4ccc(NCCO)nc4)CC3)C2)c1` (stereo partly drawn) [Compound 428, 3-((2S)-2-hydroxy-3-(8-(6-(2-hydroxyethylamino)pyridin-3-ylsulfonyl)-1-oxa-8-azaspiro[4.5]decan-3-ylamino)propoxy)-N-methylbenzenesulfonamide], the IC50 amounted to 61.5 nM.

Consider `CNS(=O)(=O)c1cccc(OC[C@@H](O)CNC2COC3(CCN(S(=O)(=O)c4ccc(NCCN)nc4)CC3)C2)c1` (stereo partly drawn) [Compound 429, 3-((2S)-3-(8-(6-(2-aminoethylamino)pyridin-3-ylsulfonyl)-1-oxa-8-azaspiro[4.5]decan-3-ylamino)-2-hydroxypropoxy)-N-methylbenzenesulfonamide], for which the IC50 turned out to be 149 nM.

`CNS(=O)(=O)c1cccc(OC[C@@H](O)CNC2COC3(CCN(S(=O)(=O)c4ccc(N5CCNCC5)nc4)CC3)C2)c1` (stereo partly drawn) [Compound 430, 3-((2S)-2-hydroxy-3-(8-(6-(piperazin-1-yl)pyridin-3-ylsulfonyl)-1-oxa-8-azaspiro[4.5]decan-3-ylamino)propoxy)-N-methylbenzenesulfonamide]: the IC50 came out at 93.4 nM.

As for `CN1CCOc2ncc(S(=O)(=O)N3CCC4(CC3)C[C@@H](NC[C@H](O)COc3cccc(S(=O)(=O)N[C@H]5CCCC[C@@H]5O)c3)CO4)cc21` [Compound 431, 3-((S)-2-hydroxy-3-((R)-8-(1-methyl-2,3-dihydro-1H-pyrido[2,3-b][1,4]oxazin-7-ylsulfonyl)-1-oxa-8-azaspiro[4.5]decan-3-ylamino)propoxy)-N-((1S,2S)-2-hydroxycyclohexyl)benzenesulfonamide], the IC50 was 1160 nM.

Regarding `C[C@@H](CO)NS(=O)(=O)c1cccc(OC[C@@H](O)CN[C@H]2COC3(CCN(S(=O)(=O)c4cnc5c(c4)N(C)CCO5)CC3)C2)c1` [Compound 432, 3-((S)-2-hydroxy-3-((R)-8-(1-methyl-2,3-dihydro-1H-pyrido[2,3-b][1,4]oxazin-7-ylsulfonyl)-1-oxa-8-azaspiro[4.5]decan-3-ylamino)propoxy)-N—((S)-1-hydroxypropan-2-yl)benzenesulfonamide], the IC50 stood at 196 nM.

On to `CNS(=O)(=O)c1cccc(OC[C@@H](O)CNC2COC3(CCN(c4cc(Cl)ccn4)CC3)C2)c1` (stereo partly drawn) [Compound 433, 3-((2S)-3-(8-(4-chloropyridin-2-yl)-1-oxa-8-azaspiro[4.5]decan-3-ylamino)-2-hydroxypropoxy)-N-methylbenzenesulfonamide], for which the half-inhibitory concentration (IC50) is 352 nM.

On to `C[C@H](O)CNS(=O)(=O)c1cccc(OC[C@@H](O)CN[C@H]2COC3(CCN(S(=O)(=O)c4cnc5c(c4)N(C)CCO5)CC3)C2)c1` [Compound 434, 3-((S)-2-hydroxy-3-((R)-8-(1-methyl-2,3-dihydro-1H-pyrido[2,3-b][1,4]oxazin-7-ylsulfonyl)-1-oxa-8-azaspiro[4.5]decan-3-ylamino)propoxy)-N—((S)-2-hydroxypropyl)benzenesulfonamide], for which the 50% inhibitory concentration (IC50) worked out at 578 nM.

With `CN1CCOc2ncc(S(=O)(=O)N3CCC4(CC3)C[C@@H](NC[C@H](O)COc3cccc(S(=O)(=O)N[C@@H]5CCCC[C@@H]5O)c3)CO4)cc21` [Compound 435, 3-((S)-2-hydroxy-3-((R)-8-(1-methyl-2,3-dihydro-1H-pyrido[2,3-b][1,4]oxazin-7-ylsulfonyl)-1-oxa-8-azaspiro[4.5]decan-3-ylamino)propoxy)-N-((1R,2S)-2-hydroxycyclohexyl)benzenesulfonamide], the IC50 came out at 191 nM.

In the case of `C[C@@H](O)CNS(=O)(=O)c1cccc(OC[C@@H](O)CN[C@H]2COC3(CCN(S(=O)(=O)c4cnc5c(c4)N(C)CCO5)CC3)C2)c1` [Compound 436, 3-((S)-2-hydroxy-3-((R)-8-(1-methyl-2,3-dihydro-1H-pyrido[2,3-b][1,4]oxazin-7-ylsulfonyl)-1-oxa-8-azaspiro[4.5]decan-3-ylamino)propoxy)-N—((R)-2-hydroxypropyl)benzenesulfonamide], the IC50 was 367 nM.

Consider `CCOc1ccc(-c2ccc(CNC(C)C)cc2)cc1S(=O)(=O)N1CCC2(CC1)C[C@H](NC[C@H](O)COc1cccc(S(=O)(=O)NC)c1)CO2` [Compound 438, 3-((S)-3-((S)-8-(4-ethoxy-4′-((isopropylamino)methyl)biphenyl-3-ylsulfonyl)-1-oxa-8-azaspiro[4.5]decan-3-ylamino)-2-hydroxypropoxy)-N-methylbenzenesulfonamide], for which the half-inhibitory concentration (IC50) stood at 20.5 nM.

With `CCOc1ccc(-c2ccc(CNC(C)C)cc2)cc1S(=O)(=O)N1CCC2(CC1)C[C@@H](NC[C@H](O)COc1cccc(S(=O)(=O)NC)c1)CO2` [Compound 439, 3-((S)-3-((R)-8-(4-ethoxy-4′-((isopropylamino)methyl)biphenyl-3-ylsulfonyl)-1-oxa-8-azaspiro[4.5]decan-3-ylamino)-2-hydroxypropoxy)-N-methylbenzenesulfonamide], the IC50 was 27.2 nM.

Consider `CC(C)NCc1ccc(-c2cccc(S(=O)(=O)N3CCC4(CC3)C[C@@H](NC[C@H](O)COc3cccc(S(N)(=O)=O)c3)CO4)c2)cc1` [Compound 440, 3-((S)-2-hydroxy-3-((R)-8-(4′-((isopropylamino)methyl)biphenyl-3-ylsulfonyl)-1-oxa-8-azaspiro[4.5]decan-3-ylamino)propoxy)benzenesulfonamide], for which the IC50 came to 112 nM.

On to `CNS(=O)(=O)c1cccc(OC[C@@H](O)CNC2COC3(CCN(S(=O)(=O)c4cccnc4N(C)C)CC3)C2)c1` (stereo partly drawn) [Compound 441, 3-((2S)-3-(8-(2-(dimethylamino)pyridin-3-ylsulfonyl)-1-oxa-8-azaspiro[4.5]decan-3-ylamino)-2-hydroxypropoxy)-N-methylbenzenesulfonamide], for which the IC50 is 81.1 nM.

Take `CNS(=O)(=O)c1cccc(OC[C@@H](O)CNC2COC3(CCN(S(=O)(=O)c4cccnc4N4CCOCC4)CC3)C2)c1` (stereo partly drawn) [Compound 442, 3-((2S)-2-hydroxy-3-(8-(2-morpholinopyridin-3-ylsulfonyl)-1-oxa-8-azaspiro[4.5]decan-3-ylamino)propoxy)-N-methylbenzenesulfonamide]: the IC50 came out at 367 nM.

With `CNS(=O)(=O)c1cccc(OC[C@@H](O)CN[C@H]2COC3(CCN(S(=O)(=O)c4ccc5c(n4)OCC(=O)N5)CC3)C2)c1` [Compound 443, 3-((S)-2-hydroxy-3-((R)-8-(2-oxo-2,3-dihydro-1H-pyrido[2,3-b][1,4]oxazin-6-ylsulfonyl)-1-oxa-8-azaspiro[4.5]decan-3-ylamino)propoxy)-N-methylbenzenesulfonamide], the concentration for half-maximal inhibition (IC50) turned out to be 36.9 nM.

Consider `CNS(=O)(=O)c1cccc(OC[C@@H](O)CN[C@H]2COC3(CCN(S(=O)(=O)c4cnc5c(c4)NCCO5)CC3)C2)c1` [Compound 444, 3-((S)-3-((R)-8-(2,3-dihydro-1H-pyrido[2,3-b][1,4]oxazin-7-ylsulfonyl)-1-oxa-8-azaspiro[4.5]decan-3-ylamino)-2-hydroxypropoxy)-N-methylbenzenesulfonamide], for which the IC50 is 31.8 nM.

On to `CCOc1ccc(S(=O)(=O)N2CCC3(CC2)CC(NC[C@H](O)COc2cccc(S(=O)(=O)NC)c2)CO3)cn1` (stereo partly drawn) [Compound 445, 3-((2S)-3-(8-(6-ethoxypyridin-3-ylsulfonyl)-1-oxa-8-azaspiro[4.5]decan-3-ylamino)-2-hydroxypropoxy)-N-methylbenzenesulfonamide], for which the IC50 stood at 30.4 nM.

Take `CNS(=O)(=O)c1cccc(OC[C@@H](O)CN[C@@H]2COC3(CCN(S(=O)(=O)c4cccc(-c5ccc(C6(N)CC6)cc5)c4)CC3)C2)c1` [Compound 446, 3-((S)-3-((S)-8-(4′-(1-aminocyclopropyl)biphenyl-3-ylsulfonyl)-1-oxa-8-azaspiro[4.5]decan-3-ylamino)-2-hydroxypropoxy)-N-methylbenzenesulfonamide]: the IC50 is 11.9 nM.

One may read the IC50 as the concentration at which inhibition is half-maximal.
